# Reference: patent US11591596B2, “Compounds and compositions including phosphorothioated oligodeoxynucleotide, and methods of use thereof” (City of Hope, priority 2015, dated 2023)
# What was measured:
# [1] = system: CML CD34+, CD34+CD38+ committed and CD34+CD38− primitive progenitors; assay: Apoptosis of CML progenitors by Annexin V/DAPI staining; type: cell-based, human; details: 500 nM combined with NIL 5 uM, 72 hours, compared with CpG-scramble and NIL
# Experimental: CML CD34+, CD34+CD38+ committed and CD34+CD38− primitive progenitors were cultured with CpG-scramble RNA (500 nM), CpG-miR126 inhibitor (500 nM), CpG-scramble RNA (500 nM)+Nilotinib (5 μM), and CpG-miR126 inhibitor (500 nM)+NIL (5 μM) for 72 hours and then apoptosis was analyzed by Annexin V/DAPI staining.
# CML CD34+, CD34+CD38+ committed and CD34+CD38− primitive progenitors were cultured with CpG-scramble RNA (500 nM), CpG-anti-miR126 inhibitor (500 nM), CpG-scramble RNA (500 nM)+Nilotinib (NIL, 5 uM), and CpG-anti-miR126 inhibitor (500 nM)+NIL (5 uM) for 72 hours and then cell cycling and apoptosis were analyzed by EDU/DAPi and Annexin V/DAPi staining.
# mouse CML LSC = assay: In vivo treatment of transplanted CML mice in combination with NIL; details: 5 mg/kg i.v. 4 times a week plus NIL 50 mg/kg daily by gavage, 3 weeks
# Experimental: FIGS. 24A-24I. […] BM cells from SCL-tTA/BCR-ABL mice (CD45.2) were transplanted into congenic B6 mice (CD45.1, n=40) to generate a cohort of mice with CML-like disease. Following confirmation of CML development at 4 weeks after transplantation, mice were randomly divided into 4 groups (n=10 each) and treated with CpG-miR-126 inhibitor (5 mg/kg i.v. 4 times a week), CpG-scrRNA (5 mg/kg, i.v. 4 times a week), CpG-miR-126 inhibitor plus NIL (50 mg/kg, daily by gavage), and CpG-scrRNA plus NIL for 3 weeks. Percentage of donor CML cells in peripheral blood (PB) (FIG. 24A), spleen (FIG. 24B) and bone marrow (BM) (FIG. 24C), numbers of donor CML LSK in spleen (FIG. 24D) and BM (FIG. 24E), and numbers of donor CML long term hematopoietic stem cells (LTHSC) in spleen (FIG. 24F) and BM (FIG. 24G) after 3 weeks' treatment were measured. […] The recipient mice were monitored for 16 weeks for CML cell engraftment in blood and leukemia development by WBC count. Frequency of LIC was quantified using L-Calc software (FIG. 24I). […]
# BM cells from SCL-tTA/BCR-ABL mice (CD45.2) were transplanted into congenic B6 mice (CD45.1, n=40) to generate a cohort of mice with CML-like disease. […] The recipient mice were monitored for 16 weeks for CML cell engraftment in blood and leukemia development by WBC count. Frequency of LIC was quantified using L-Calc software (FIG. 24I). […]
substance,measurement,setting,value
5′ G*G*T GCA TCG ATG CAGG*G*G* G*G (SEQ ID NO: 1) xxxxx mCmGmC mAmUmU mAmUmU mAmCmU mCmAmC mGmGmU mAmCmG mA (SEQ ID NO: 17) 3′ [CpG-anti-miR126],apoptosis,[1],Increased apoptosis
same,elimination of mouse CML LSC,mouse CML LSC,enhances elimination of mouse CML LSC
